Tests used:
Format in all cases: cell-based, human
HT-29 = experiment: microarray analysis; conditions: 1 μM, 24 hours, vs untreated
Description: Microarrays. A total of 0.5×10^6 tumor cells (HCT-116, HT-29, KM12C) were plated in a 6-well plate and allowed to adhere overnight before 24-hour treatment, as indicated. Then, 1×10^6 immune cells (NK92, TALL-104) were plated and treated with elraglusib as indicated for twenty-four h. RNA was isolated from cell pellets in batches of six using a RNeasy Plus Mini Kit (Cat #74134, Qiagen, Hilden, Germany). Acceptable RNA concentration and quality were verified with Nanodrop and Bioanalyzer measurements. GeneChip™ Human Transcriptome Array 2.0 assays were conducted according to manufacturer instructions in two batches using randomized samples to limit batch effects (Cat #902162, Applied Biosystems, Waltham, MA, USA). Applied Biosystems Transcriptomic Analysis Console (TAC) software (RRID: SCR_016519) was used to calculate fold changes in gene expression relative to the untreated control cells. Values were considered statistically significant for p values<0.05.
The inventors then utilized microarray analysis to gain insights into gene expression changes in colorectal cancer cell lines post-GSK-3 inhibition with elraglusib. Several colorectal cancer cell lines (HCT-116, HT-29, KM12C) were treated with elraglusib at IC-50 concentrations or DMSO as vehicle control for twenty-four hours. Treated versus untreated samples were compared in triplicate using microarray analysis FIG. 10. Results were calculated using a fold change (FC) cutoff of >1.5, <−1.5, and a minimum p-value of<0.05. HCT-116 cells had 340 differentially expressed genes post-treatment. FIG. 2C.
TABLE 9 description. HT-29 CRC cell microarray analysis. HT-29 colorectal cancer cells were treated with 1 μM elraglusib for 24 hours and treated versus untreated control samples were compared in triplicate via microarray analysis (N=3). Table showing differentially expressed genes of interest with their corresponding fold changes, p values, descriptions, and functions. Genes highlighted in yellow are known p53 targets. Genes are ordered by fold change and were calculated using a fold change cutoff of >1.5, <−1.5, and a minimum p value of <0.05.

NK-92 = experiment: 10× single-cell sequencing; conditions: 1 μM, twenty-four hours vs DMSO
Description: (§1) Single-cell RNA sequencing. Single cells were captured and 3′ single-cell gene expression libraries were conducted (Next GEM v3.1) using the 10× Genomics Chromium system by SingulOmics (SingulOmics, New York, NY, USA). Gene expression libraries were sequenced with ˜200 million PE150 reads per sample on Illumina (RRID: SCR_016387) NovaSeq (Illumina, Inc., San Diego, CA, USA). After sequencing, clean reads were then analyzed with human reference genome GRCh38 using Cell Ranger v6.1.2 (RRID: SCR_017344, 10× Genomics, Pleasanton, CA, USA). Data were analyzed and visualized using Loupe Browser (RRID: SCR_018555, 10× Genomics, Pleasanton, CA, USA).
(§2) To determine if there was any heterogeneity in response to drug treatment, the inventors employed a 10× single-cell sequencing analysis on both immune cell lines (TALL-104, NK-92) treated with low-dose 1 μM elraglusib or vehicle control (DMSO) for twenty-four hours. Samples clustered by cell type when aggregate data were visualized using a t-SNE plot (FIG. 3G). […] The inventors noted an increase in immune cell attractant CCL4 in the NK-92 cells and an increase in immune cell chemoattractant CXCR4 in the TALL-104 cells.

TALL-104 = experiment: 10× single-cell sequencing; conditions: 1 μM, twenty-four hours vs DMSO
Description: as §1, §2

In the case of `Cn1cc(C2=C(c3coc4ccc(F)cc34)C(=O)NC2=O)c2cc3c(cc21)OCO3` [elraglusib], the “AEN Fold Change” value (HT-29) is reported as 2.33, the “AGGF1 Fold Change” value (HT-29) is reported as −2.21 and the “B2M Fold Change” value (HT-29) is reported as 2.41. The “BARD1 Fold Change” value (HT-29) was −5.06, the “BCCIP Fold Change” value (HT-29) was 1.61 and the “BCL6 Fold Change” value (HT-29) was −3.43. The “BRAF Fold Change” value (HT-29) was −1.53, the “BTN3A2 Fold Change” value (HT-29) was −1.58 and the “CCAR1 Fold Change” value (HT-29) was 1.56. For the same compound, the “CCNE1 Fold Change” value (HT-29) was −2.6, the “CCNE2 Fold Change” value (HT-29) was −5.83 and the “CD14 Fold Change” value (HT-29) was −2.63. For the same compound, the “CD276 Fold Change” value (HT-29) was −1.56, the “CDC25C Fold Change” value (HT-29) was −2.45 and the “CDC45 Fold Change” value (HT-29) was −1.75. For the same compound, the “CDCA3 Fold Change” value (HT-29) was −1.7, the “CDK1 Fold Change” value (HT-29) was −3.05 and the “CDK2 Fold Change” value (HT-29) was −2.23. For the same compound, the “CDKN1A Fold Change” value (HT-29) was 1.72, the “CRLF3 Fold Change” value (HT-29) was 1.5 and the “DYNC1H1 Fold Change” value (HT-29) was −1.7. For the same compound, the “E2F7 Fold Change” value (HT-29) was −3.82, the “E2F8 Fold Change” value (HT-29) was −3.1 and the “EAPP Fold Change” value (HT-29) was −1.58. The “EGR1 Fold Change” value (HT-29) was 5.41, the “ERBB2IP Fold Change” value (HT-29) was −1.7 and the “FADD Fold Change” value (HT-29) was −1.66. For the same compound, the “FZD7 Fold Change” value (HT-29) was −1.71, the “HIP1 Fold Change” value (HT-29) was −1.67 and the “IL17RA Fold Change” value (HT-29) was −1.68. For the same compound, the “IL17RB Fold Change” value (HT-29) was −2.03, the “ITGB6 Fold Change” value (HT-29) was −1.91 and the “JAK1 Fold Change” value (HT-29) was −1.58. The “MAP3K1 Fold Change” value (HT-29) was −6.1, the “MCIDAS Fold Change” value (HT-29) was −1.61 and the “MDM4 Fold Change” value (HT-29) was 1.68. For the same compound, the “MTA3 Fold Change” value (HT-29) was −1.84, the “MYD88 Fold Change” value (HT-29) was −1.68 and the “NCR3LG1 Fold Change” value (HT-29) was 1.78. The “NFKBIA Fold Change” value (HT-29) was −5.25, the “NFKBIZ Fold Change” value (HT-29) was −2.68 and the “PDS5B Fold Change” value (HT-29) was −1.58. For the same compound, the “PIM1 Fold Change” value (HT-29) was −1.75, the “SFN Fold Change” value (HT-29) was 1.54 and the “SGK1 Fold Change” value (HT-29) was −1.75. The “SMAD3 Fold Change” value (HT-29) was 1.69, the “SOCS7 Fold Change” value (HT-29) was 1.74 and the “TGFBR3 Fold Change” value (HT-29) was −4.82. The “TNFRSF12A Fold Change” value (HT-29) was 1.9, the “TNFSF15 Fold Change” value (HT-29) was −2.32 and the “TNIK Fold Change” value (HT-29) was −1.51. For the same compound, the “TRAIP Fold Change” value (HT-29) was 1.83, the “TRIB1 Fold Change” value (HT-29) was −9.14 and the “UHRF1 Fold Change” value (HT-29) was −1.75. The CCL4 expression (NK-92) was “increase”, the CD69 expression (NK-92) was “increase” and the CHI3L1 expression (NK-92) was “decrease”. The CD69 expression (TALL-104) was “increase”, the CHI3L1 expression (TALL-104) was “decrease” and the CXCR4 expression (TALL-104) was “increase”.

From patent US20240041830A1, “CIRCULATING BIOMARKERS OF RESPONSE TO PD-1/PD-L1 BLOCKADE AND GSK-3 INHIBITION” (Brown University, priority 2022, published 2024)
